The text below walks through data of US20170096492A1, “DOSAGE AND ADMINISTRATION OF ANTI-IGF-1R, ANTI-ErbB3 BISPECIFIC ANTIBODIES, USES THEREOF AND METHODS OF TREATMENT [sequence]” (Merrimack Pharmaceuticals, Inc., priority 2014, published 2017).

“Also recorded” adds a separate entry of the source.

Data set [1] has as its system CFPAC-1 pancreatic cancer cells. The experiment in a line: CellTiter-Glo viability in three-dimensional nano-culture plates. It counts as cell-based, human. As for the experimental part: CFPAC-1 pancreatic cancer cells were seeded in 10% serum-containing medium and incubated in 96-well three-dimensional nano-culture plates overnight. […] Cell viability was measured 96 hours post-treatment using CellTiter-Glo® (Promega).

Data set [2] shares this test system. Put plainly: Total ErbB3 and total IGF-1R ELISA (Example 20). It counts as cell-based, human. To be noted: 50 nM, relative to vehicle control. As for the experimental part: CFPAC-1 pancreatic cancer cells were seeded at 65% confluence in 10% serum-containing medium and incubated in 96-well plates overnight. […] After treatment, cells were harvested and protein lysates generated. Changes in ErbB3 and IGF-1R levels across all treatments were evaluated by total ErbB3 or total IGF-1R ELISA, respectively.
(An ELISA detects its analyte on a solid surface through an enzyme-linked reagent.)

Data set [3] relates to hepatocellular carcinoma tumor biopsies. The experiment in a line: Immunohistochemistry of pre- and post-treatment tumor biopsies (cohort 4D). It counts as in vivo, human. As to conditions: post- vs pre-treatment, MM-141 20 mg/kg weekly, sorafenib-refractory HCC. An excerpt:
Formalin fixed, paraffin embedded biopsy samples were sectioned at 5 μm, processed and stained for IGF-1R (G11 clone detection antibody, Ventana) and ErbB3 (clone D22 antibody, Cell Signaling Technology).

The test system of data set [4] is BxPC-3 (KRas wild-type) pancreatic cancer cells. Put plainly: pAKT western blot, GSK-1120212 and MM-141. It counts as cell-based, human. To be noted: 24 h. As for the experimental part:
Following treatment, cells were harvested in cell lysis buffer and western blotting was performed and quantified for pAKT (Serine 473).
Background: A western blot detects proteins with antibodies after separation by electrophoresis.

Data set [5] deals with platinum-sensitive (Peol, PEA1 and OvCAR5) and platinum-resistant (Peo4 and PEA2) ovarian cancer cells. The experiment in a line: CTG cell viability, paclitaxel with IGF-1 or HRG, three-dimensional ovarian cultures. It counts as cell-based. As to conditions: paclitaxel 10-100 nM, IGF-1 or HRG 0-50 nM, MM-141 1 μM, 2% serum. The method, then:
The cell viability assay (FIGS. 17A-B) was carried out using a CellTiter-Glo® (CTG) assay (Promega), which determines the number of viable cells in a culture based on quantitation of the ATP present. In FIGS. 17A-B, Peol, Peo4, PEA1, PEA2 and OvCAR5 cells were grown in 2% serum alone or with exogenous IGF-1 or HRG added (0-50 nM).

Data set [6] has as its system BxPC-3 pancreatic cancer cells. The experiment in a line: CTG cell viability, paclitaxel with IGF-1 or HRG, three-dimensional cultures. It counts as cell-based, human. As for the experimental part: The cell viability assay (FIGS. 7A-B and 8A-B) was carried out using a CellTiter-Glo® (CTG) assay (Promega), which determines the number of viable cells in a culture based on quantitation of the ATP present. In FIGS. 7A-B, BxPC-3 cells were grown in low serum alone or with exogenous IGF-1 or HRG added (0-50 nM). […] For the cell viability assays described in FIGS. 8(A-B), (FIG. 8A) BxPC-3 and (FIG. 8B) CFPAC-1 cells were cultured in low (2%) serum alone or with a combination of IGF-1 (50 nM) and HRG (10 nM).

Data set [7] deals with ovarian cancer cell lines (PEA1, PEA2, OvCAR8). Put plainly: Growth-factor-induced proliferation, 3D in vitro assays (CTG). It counts as cell-based.
The subject of data set [8] is panel of pancreatic cancer cell lines. Put plainly: pAKT ELISA after HRG and IGF-1 stimulation. It counts as cell-based, human. To be noted: MM-141 500 nM 24 hours, HRG and IGF-1 100 ng/mL 15 minutes, ten cell lines. The method, then:
Ten pancreatic cancer cell lines (see Table 3 above) were seeded at 65% confluence in 10% serum-containing medium and incubated in 96-well plates overnight. […] Following incubation, cells were treated with a combination of HRG and IGF-1 ligands at 100 ng/mL or PBS (control) for 15 minutes. After treatment, cells were harvested and protein lysates generated. Changes in pAKT levels across all treatments and cell lines were evaluated by pAKT ELISA. Phosphorylated AKT signal from untreated control was subtracted from each treatment, and then pAKT levels post-treatment with HRG and IGF-1 were normalized to 1 for each cell line.

The test system of a further data set is ovarian cancer cells. Put plainly: Ovarian cancer cell western blot, AKT and ERK signaling. It counts as cell-based. As to conditions: MM-141 1 μM 1 hour, then IGF-1 50 nM or HRG 10 nM 10 minutes. As for the experimental part:
In FIGS. 18A-F, Peol, Peo4, Ov90, PEA1, PEA2 and OvCAR8 ovarian cancer cells were plated on 10 cm plates (1-3×10^6 cells per plate) in 10% serum-containing medium and incubated overnight. […] Following treatment, cells were harvested in lysis buffer containing protease and phosphatase inhibitors and analyzed by western blotting. Phosphorylated and total levels of IGF-1R, ErbB3, AKT and ERK were determined using target-specific antibodies.

In data set [9] the test system is HepG2 hepatocellular carcinoma cells. The experiment in a line: HepG2 western blot, sorafenib with or without MM-141. As to conditions: MM-141 500 nM added to sorafenib 5 μM, 2 hours. It counts as cell-based. As for the experimental part:
HepG2 cells were plated on 12 well dishes (3×10^5 cells per well) in 10% serum-containing media and incubated overnight. […] Following treatment, cells were harvested in lysis buffer containing protease and phosphatase inhibitors and analyzed by western blotting.

In data set [10] the test system is CFPAC-1 pancreatic cancer cells. The experiment in a line: Receptor ubiquitination, immunoprecipitation and immunoblotting. It counts as cell-based, human. As to conditions: 500 nM MM-141 20 minutes after 2 hours 1 μM epoxomicin. An excerpt: Cell lysates were immunoprecipitated (IP) with an IGF-1R (FIG. 33C) or ErbB3 (FIG. 33D) antibody, and then immunoblotted (IB) for IGF-1R, ErbB3, or ubiquitin protein (Ub) expression by western blotting.

A further data set concerns BxPC-3 cells. The experiment in a line: Cellular proliferation assay in low serum with or without IGF-1 or HRG. It counts as cell-based, human. As to conditions: for inhibition of cell growth: low (2%) serum.
[11] abbreviates: MM-141 500 nM added to paclitaxel 50 nM.

In the case of “MM-141: polyvalent bispecific antibody P4-G1-M1.3, anti-IGF-1R and anti-ErbB3; heavy chain SEQ ID NO: 3, light chain SEQ ID NO: 4”, the “proliferation compared to cells incubated with ligands alone” value in data set [1] (MM-141 1000 nM in addition to HRG 10 nM and IGF-1 50 nM, with gemcitabine or paclitaxel) is recorded as “reduced proliferation”. The “sensitivity to gemcitabine in cells stimulated with HRG and IGF-1” value in data set [1] (gemcitabine 2 nM, HRG 10 nM, IGF-1 50 nM, MM-141 1000 nM, 96 hours) is given as “restores sensitivity”. Besides, the “sensitivity to paclitaxel in cells stimulated with HRG and IGF-1” value in data set [1] (paclitaxel 6 nM, HRG 10 nM, IGF-1 50 nM, MM-141 1000 nM, 96 hours) is recorded as “restores sensitivity”. Also, in data set [2], the “total ErbB3 protein level” value is given as “potently down-regulates” and the “total IGF-1R protein level” value was “potently down-regulates”. In data set [3], the “ErbB3 level in tumor biopsy” value is given as “decreased; also recorded: Down-regulation” and the “IGF-1R level in tumor biopsy” value is given as “decreased; also recorded: Down-regulation”. Also, in data set [4] (MM-141 1000 nM with GSK-1120212 250 nM), the “pAKT upregulation induced by the MEK inhibitor” value is listed as “decreases the pAKT upregulation”. Further, in data set [4] (single agent, GSK-1120212 250 nM or MM-141 1000 nM), the “pAKT (Serine 473) level” value is listed as “down-regulates the basal level of pAKT”. Also, the “resistance to cytotoxic effect of paclitaxel caused by IGF-1 or heregulin” value in data set [5] was “resistance was reversed”. In [6] (setting [11]), the “sensitivity to cytotoxic properties of paclitaxel in a high IGF-1 setting” value is on record as “re-sensitize cells” and the “sensitivity to cytotoxic properties of paclitaxel in the presence of high HRG” value is “re-sensitize cells”. For the same substance, the “resistance to cytotoxic effect of paclitaxel caused by IGF-1 or heregulin” value in [6] (paclitaxel 50 nM, IGF-1 or HRG 0-50 nM, MM-141 500 nM) is “resistance was reversed”. The “IGF-1 and HRG growth-factor-induced proliferation” value in [7] is listed as “blocks”. Moreover, the “pAKT (AKT activation) induced by the combination of HRG and IGF-1” value in data set [8] is listed as “blocks AKT activation; also recorded: greatly reduced amount of pAKT”. Moreover, in the data set on ovarian cancer cells, the “IGF-1 and/or HRG induced upregulation in AKT and ERK survival signaling” value is reported as “could be abrogated”. Further, the “sorafenib-induced up-regulation of ErbB3 and pAKT” value in data set [9] is “overcome”. Also, the “IGF-1R and ErbB3 receptor ubiquitination” value in [10] is “induction of ubiquitination; also recorded: enhanced receptor ubiquitination”. The “inhibition of cell growth, greater than in the absence of ligand” value with BxPC-3 cells (in presence of HRG) was “approximately 50%”. Besides, the “inhibition of cell growth” value with BxPC-3 cells (IGF-1 added to the media) is recorded as “maximal activity”. In addition, the “inhibition of cell growth” value in the data set on BxPC-3 cells (absence of exogenous ligand) is “unable to inhibit cell growth”.
